The values below come from ChEMBL document CHEMBL1138517, “Synthesis and structure-activity relationship of griseofulvin analogues as inhibitors of centrosomal clustering in cancer cells” (J Med Chem, 2009).

This test is described as follows: Inhibition of centrosomal clustering in human SCC114 cells expressing GFPalpha-tubulin assessed as mitotic cells with multipolar spindles by fluorescence microscopy. The class given is functional, cell-based.

By IC50 is commonly meant the concentration that inhibits the measured activity by half. Regarding `COC1=CC(=O)C[C@@H](C)[C@]12Oc1c(Cl)c(OC)cc(O)c1C2=O`, the IC50 is more than 100 µM. With `CCOc1cc(OC)c(Cl)c2c1C(=O)[C@@]1(O2)C(OC)=CC(=O)C[C@H]1C`, the concentration for half-maximal inhibition (IC50) was more than 100 µM.

With `CCOC1=CC(=O)C[C@@H](C)[C@]12Oc1c(Cl)c(OC)cc(OC)c1C2=O`, the IC50 came out at 6.6 µM.

In the case of `COc1cc(OC)c2c(c1Cl)O[C@]1(C2=O)C(OC(C)C)=CC(=O)C[C@H]1C`, the IC50 was 6.8 µM.

For `COC1=C/C(=N\O)C[C@@H](C)[C@]12Oc1c(Cl)c(OC)cc(OC)c1C2=O`, the IC50 is 17 µM. With `COc1cc(OC)c2c(c1Cl)O[C@@]1(C(=O)C(Cc3ccccc3)=C(O)C[C@H]1C)C2=O` the figure was more than 100 µM; with `CCCOC1=C(I)C(=O)C[C@@H](C)[C@]12Oc1c(Cl)c(OC)cc(OC)c1C2=O`, 2 µM; with `COC1=CC(=O)C[C@@H](C)[C@]12Oc1c(Cl)c(OC)c([N+](=O)[O-])c(OC)c1C2=O`, more than 100 µM. With `COc1cc(OC)c2c(c1Cl)O[C@]1(C2=O)C(OCc2ccccc2)=C(I)C(=O)C[C@H]1C` the figure was more than 100 µM; with `CCCCCOC1=CC(=O)C[C@@H](C)[C@]12Oc1c(Cl)c(OC)cc(OC)c1C2=O`, 2.8 µM; with `COc1cc(OC)c2c(c1Cl)O[C@]1(C2=O)C(OC2CCCC2)=CC(=O)C[C@H]1C`, 1.3 µM. In the case of `COc1cc(OC)c2c(c1Cl)O[C@]1(C2=O)C(OCc2ccc(C)cc2)=CC(=O)C[C@H]1C`, the IC50 is 0.9 µM. With `COc1cc(OC)c2c(c1Cl)O[C@]1(C2=O)C(OCc2ccc(-c3ccccc3)cc2)=CC(=O)C[C@H]1C` the figure was 2.9 µM; with `COC1=C/C(=N\N(C)C)C[C@@H](C)[C@]12Oc1c(Cl)c(OC)cc(OC)c1C2=O`, 27 µM. In the case of `COc1cc(OC)c2c(c1Cl)O[C@]1(C2=O)C(=O)C(C)(C)C(=O)C[C@H]1C`, the IC50 was more than 100 µM. The figure for `COc1cc(OC)c2c(c1Cl)O[C@]1(C2=O)C(OCC2CC2)=CC(=O)C[C@H]1C` is 1.8 µM. The figure for `COc1cc(OC)c2c(c1Cl)O[C@]1(C2=O)C(SCc2ccccc2)=CC(=O)C[C@H]1C` is 1.3 µM; for `COC1=C[C@@H](O)C[C@@H](C)[C@]12Oc1c(Cl)c(OC)cc(OC)c1C2=O` it is more than 100 µM; for `COc1cc(OC)c2c(c1Cl)O[C@@]1(C2=O)[C@H](C)C[C@H](O)C[C@@H]1OC` it is more than 100 µM. With `COc1cc(OC)c2c(c1Cl)O[C@]1(C2=O)C(OCCc2ccccc2)=CC(=O)C[C@H]1C` the figure was 15 µM. `COc1cc(OC)c2c(c1Cl)O[C@@]1(C(=O)C=C(O)C[C@H]1C)C2=O`: the IC50 was more than 100 µM. The figure for `COC1=CC(=O)C[C@@H](C)[C@]12Oc1c(Cl)c(OC)c(NCc3ccccc3)c(OC)c1C2=O` is more than 100 µM; for `COc1cc(OC)c2c(c1Cl)O[C@]1(C2=O)C(OCc2ccccc2)=CC(=O)C[C@H]1C` it is 0.9 µM. With `COc1cc(OC)c2c(c1Cl)O[C@]1(C2=O)C(OCc2ccccc2)=C/C(=N\O)C[C@H]1C` the figure was 0.9 µM; with `COC1=CC(=O)C[C@@H](C)[C@]12Oc1c(Cl)c(OC)cc(OCc3ccccc3)c1C2=O`, more than 100 µM.

On to `COC1=C(I)C(=O)C[C@@H](C)[C@]12Oc1c(Cl)c(OC)cc(OC)c1C2=O`, for which the IC50 is more than 100 µM.

In the case of `CCCOC1=CC(=O)C[C@@H](C)[C@]12Oc1c(Cl)c(OC)cc(OC)c1C2=O`, the IC50 turned out to be 6.6 µM. Take `COC1=CC(=O)C[C@@H](C)[C@]12Oc1c(Cl)c(OC)c(N)c(OC)c1C2=O`: the IC50 is more than 100 µM.

`COc1cc(OC)c2c(c1Cl)O[C@]1(C2=O)C(OCC23CC4CC(CC(C4)C2)C3)=CC(=O)C[C@H]1C`: the IC50 worked out at 3.7 µM. With `CCCCOC1=CC(=O)C[C@@H](C)[C@]12Oc1c(Cl)c(OC)cc(OC)c1C2=O`, the IC50 came to 2.5 µM.

On to `COc1cc(OC)c2c(c1Cl)O[C@]1(C2=O)C(Oc2ccccc2)=CC(=O)C[C@H]1C`, for which the 50% inhibitory concentration (IC50) was determined as 1.5 µM.

Consider `CCCCCCOC1=CC(=O)C[C@@H](C)[C@]12Oc1c(Cl)c(OC)cc(OC)c1C2=O`, for which the IC50 is 4 µM. Regarding `COC1=CC(=O)C[C@@H](C)[C@]12Oc1c(Cl)c(OC)cc(OC)c1C2=O` [GRISEOFULVIN], the IC50 worked out at 24 µM.

In the case of `COC1=CC(=O)[C@@]2(Oc3c(Cl)c(OC)cc(OC)c3C2=O)[C@H](C)C1` [ISOGRISEOFULVIN], the IC50 is more than 100 µM.
